Structures are written as SMILES.

In general, Ki refers to the equilibrium dissociation constant of an inhibitor or competing ligand from its target.

The target in the experiment is T1, microsomal Ca2+-ATPase (SERCA).
T1 construct: native enzyme in microsomal membranes isolated from SH-SY5Y cells
Briefly: Ca2+-dependent ATP hydrolysis (phosphate liberation assay) in SH-SY5Y microsomes. Format: biochemical.
For the compound `CC(C)(c1cc(Br)c(O)c(Br)c1)c1cc(Br)c(O)c(Br)c1` [Tetrabromobisphenol-A], the Ki came out at 9 ± 2 µM. Regarding `Brc1c(Br)c(Br)c(Oc2c(Br)c(Br)c(Br)c(Br)c2Br)c(Br)c1Br` [decabromodiphenyl ether], the Ki turned out to be 41 ± 7 µM. The figure for `BrC1CCC(Br)C(Br)CCC(Br)C(Br)CCC1Br` (stereo not drawn) [hexabromocyclododecane] is 3.5 ± 1.2 µM.

The values are drawn from article PMC3317662, “Some Commonly Used Brominated Flame Retardants Cause Ca^2+-ATPase Inhibition, Beta-Amyloid Peptide Release and Apoptosis in SH-SY5Y Neuronal Cells” (PLoS ONE, 2012).
